In PubChem BioAssay (NCI):
“And” between values parts separate entries of the source, which are not always exact repeats. Equal entries are not always repeated.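 Values below derive from 48-hour exposures of cells grown in 96-well plates, with endpoints linearly interpolated between the two concentrations bracketing the appropriate inhibition level. GI50: concentration for 50% inhibition of growth. TGI denotes the concentration required for complete inhibition of growth.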

What was measured:
Test in all cases: growth of human tumour cells (NCI), 48 h
OVCAR-5 ovarian = test system: OVCAR-5 ovarian
RXF 393 renal = test system: RXF 393 renal
SF-268 CNS = test system: SF-268 CNS
SK-MEL-5 melanoma = test system: SK-MEL-5 melanoma
COLO 205 colon = test system: COLO 205 colon
K-562 leukemia = test system: K-562 leukemia
HS 578T breast = test system: HS 578T breast
HOP-92 NSCLC = test system: HOP-92 NSCLC
SNB-19 CNS = test system: SNB-19 CNS
SF-539 CNS = test system: SF-539 CNS

Row | Structure (SMILES) | GI50 (OVCAR-5 ovarian) [µM] | TGI (OVCAR-5 ovarian) [µM] | GI50 (RXF 393 renal) | TGI (RXF 393 renal) | GI50 (SF-268 CNS) | TGI (SF-268 CNS) | GI50 (SK-MEL-5 melanoma) | TGI (SK-MEL-5 melanoma) | GI50 (COLO 205 colon) | TGI (COLO 205 colon) | GI50 (K-562 leukemia) | TGI (K-562 leukemia) | GI50 (HS 578T breast) | TGI (HS 578T breast) | GI50 (HOP-92 NSCLC) | TGI (HOP-92 NSCLC) | GI50 (SNB-19 CNS) | TGI (SNB-19 CNS) | GI50 (SF-539 CNS) | TGI (SF-539 CNS)
1 | Cn1ncc(C#N)c1-c1ccc2c(c1)CN([C@H](CN)Cc1cccc(F)c1)C2=O | 18.6 | > 100 | 0.172 µM | 2.43 µM | 20.1 µM | > 100 µM | 12.1 µM | 24.9 µM | 1.85 µM | 21 µM | 27.4 µM | > 100 µM | 0.322 µM | 11.4 µM | 0.134 µM | 1.67 µM | 1.15 µM | > 55.3 µM | 0.193 µM | 8.74 µM
2 | O=S(=O)(NC1=NCCN1C(=S)SN1CCn2c1nsc2=S)c1ccc(Oc2ccccc2)cc1 | > 100 | > 100 | 32.4 µM | 86.1 µM | 57.3 µM | > 100 µM | 32.3 µM | > 100 µM | > 100 µM | > 100 µM |  |  | 27.5 µM | > 100 µM | 74.2 µM | > 100 µM | > 100 µM | > 100 µM | 49.5 µM | > 100 µM
3 | NC(=O)c1c(NC(=O)c2cccs2)sc2c1CCC(=O)C2 | 2.68 | 9.23 | 2.05 µM | 8.49 µM | 3.21 µM | > 100 µM | 1.62 µM | 3.19 µM |  |  | 0.736 µM | > 100 µM | 3.27 µM | > 100 µM | 1.38 µM | 4 µM | 3.49 µM | > 100 µM | 1.54 µM | 5.06 µM
4 | CC[C@@H](C)/C=C(C)/C=C/C(=O)c1c(O)c(-c2ccc(OC(=O)[C@@]34CC[C@@](C)(C(=O)O3)C4(C)C)cc2)cn(O)c1=O | 2.79 | > 50 | 1.81 µM | > 50 µM | 0.888 µM | 6.6 µM | 1.4 µM | 4.63 µM | 15.2 µM | > 50 µM | 1.57 µM | > 50 µM | 3.33 µM | > 50 µM | 2.84 µM | > 50 µM | 2.66 µM | > 50 µM | 1.3 µM | 6.1 µM
5 | C/C(=N\NC(=O)c1ccncc1)c1sc(-n2nc(-c3ccccc3)cc2-c2ccccc2)nc1C |  | > 31.6 |  | > 31.6 µM |  | > 100 µM |  | > 31.6 µM |  | > 100 µM |  | > 100 µM |  | > 100 µM |  | > 31.6 µM |  | > 31.6 µM |  | > 31.6 µM
6 | CCN1CCN(c2nc(C)cc(NCc3cc(Nc4ccnc5cc(Cl)ccc45)ccc3F)n2)CC1 | 2.2 | 6.71 | 1.27 µM | 3 µM | 1.89 µM | 5.79 µM | 1.7 µM | 3.12 µM | 1.77 µM | 3.95 µM | 0.663 µM | 4.95 µM | 1.72 µM | 5.29 µM | 1.21 µM | 4.07 µM | 2.91 µM | 13.1 µM | 1.76 µM | 3.37 µM
7 | C[C@]12CC[C@H](O[C@@H]3O[C@H](CO[C@@H]4O[C@H](CO)[C@@H](O)[C@H](O)[C@H]4O)[C@@H](O)[C@H](O)[C@H]3O)C[C@@H]1CC[C@@H]1[C@@H]2CC[C@]2(C)[C@@H](C3=CC(=O)OC3)CC[C@]12O |  | > 76.6 |  | 41.1 µM |  | 29.5 µM |  | 8.52 µM |  | > 76.9 µM |  | > 100 µM |  | > 100 µM |  | > 89.1 µM |  | > 100 µM |  | 33.2 µM
8 | Cc1cc(O)ccc1C1=NN(c2ccc(S(N)(=O)=O)cc2)C(=O)CC1 | > 100 | > 100 | 6.31 µM and 13.7 µM | 50 µM and 42.1 µM | 10.1 µM and 25.5 µM | 50 µM and > 100 µM | 2.1 µM and 6.78 µM | 50 µM and > 100 µM | 8.8 µM and 36.6 µM | 50 µM and > 100 µM | 3 µM and 2.68 µM | 50 µM and > 100 µM | 6.64 µM and 60.5 µM | 43.9 µM and > 100 µM | 11.1 µM and 18.5 µM | 50 µM and 75.5 µM | 27.4 µM and 20.3 µM | 50 µM and > 100 µM | 6.66 µM and 19.4 µM | 50 µM and > 100 µM
9 | COc1cccc(Nc2ncnc3cc(NC(=O)CCl)ccc23)c1 | 1.61 | 3.02 | 1.46 µM | 2.94 µM | 1.42 µM | 3.24 µM | 1.25 µM | 2.55 µM |  |  | 0.343 µM | 2 µM | 1.84 µM | 8.15 µM | 1.7 µM | 3.4 µM | 1.5 µM | 3.22 µM | 1.52 µM | 2.92 µM
10 | CCCCC(=O)N(c1ccc(Nc2c3ccccc3nc3cc([N+](=O)[O-])ccc23)cc1)S(C)(=O)=O | 77.6 | > 100 | 8.44 µM | 27.8 µM | 6.58 µM | > 77.7 µM | 4.25 µM | 18.3 µM | 12.7 µM | 36 µM | 5.16 µM | > 47.4 µM | 6.15 µM | 48.3 µM | 3.57 µM | 21.5 µM | 7.39 µM | > 100 µM | 5.23 µM | > 61.9 µM
11 | CCOc1cc(-c2nncn2C)ccc1Nc1ncc2cc(C)nc(NCC(C)(C)C)c2n1 | > 100 | > 100 | 2.33 µM | > 100 µM | > 100 µM | > 100 µM | > 24 µM | > 100 µM | 1.4 µM | > 100 µM |  | > 100 µM |  | > 100 µM | > 26 µM | > 100 µM | > 100 µM | > 100 µM |  | > 100 µM
12 | COC(=O)c1c[nH]c2cc(OC(C)C)c(OC(C)C)cc2c1=O | > 100 | > 100 | > 100 µM | > 100 µM | > 100 µM | > 100 µM | > 100 µM | > 100 µM | > 100 µM | > 100 µM | > 100 µM | > 100 µM | > 100 µM | > 100 µM | > 100 µM | > 100 µM | > 100 µM | > 100 µM | > 100 µM | > 100 µM
13 | C/C=C(\N=C=S)C(=O)OC1C(COC(C)=O)OC([C@]2(O)CC(=O)C(=N)C(C(=O)O)=C2O)C(O)C1OC1CC(OC)C(O)([C@@H](C)OC(=O)[C@@H](C)CC)C(C)O1 (stereo partly specified) |  | 40.4 |  | 15.5 µM |  | 23.2 µM |  | 28.6 µM |  | 13.3 µM |  | 14.6 µM |  | > 96.1 µM |  | 9.77 µM |  | 31.5 µM |  | 17.5 µM
